# Laboratory results as given in US20230165979A1, “COPPER-CONTAINING THERAGNOSTIC COMPOSITIONS AND METHODS OF USE” (Cornell University, priority 2020, published 2023).
# Key:
# PSMA on LNCaP cells = biological target: T1, PSMA on LNCaP cells (Homo sapiens, UniProt Q04609); assay: Multi-concentration competitive binding assay against 99mTc-MIP-1427
# T1 construct: host or cells: LNCaP
# Method: The PSMA-expressing human prostate cancer cell line, LNCaP, was obtained from the American Type Culture Collection. Cell culture supplies were obtained from Invitrogen (USA) unless otherwise noted. LNCaP cells were maintained in RPMI-1640 medium supplemented with 10% fetal bovine serum (Hyclone), 4 mM L-glutamine, 1 mM sodium pyruvate, 10 mM N-2-hydroxyethylpiperazine-N-2-ethanesulfonic acid (HEPES), 2.5 mg/mL D-glucose, and […] gentamicin in a humidified incubator at 37° C./5% CO2. Cells were removed from flasks for passage or for transfer to 12-well assay plates by incubating them with 0.25% trypsin/ethylenediaminetetraacetic acid (EDTA).
# The IC50 of metal-free RPS-085 was determined in a multi-concentration competitive binding assay against ^99mTc-MIP-1427 (Hillier et al., J Nucl Med. 2013; 54: 1369-76) for binding to PSMA on LNCaP cells, according to previously described methods (Kelly et al., Eur J Nucl Med Mol Imaging. 2018; 45: 1841-51). RPS-085 was added in to the wells in final concentrations ranging from 1 pM-10 μM. The assay was performed in triplicate, and the IC50 was expressed as mean±standard deviation.
# [1] = Stability of the reformulated radioligand solution at 25° C.; assay type: physicochemical; details: after reformulation, radioHPLC
# Method: The stability of the reformulated [^64Cu]Cu-RPS-085 solution was determined in triplicate at 25° C. Three 1 mL samples at a radioactivity concentration of approximately 10 MBq/mL and radiochemical purity >99% were transferred to Eppendorf tubes (VWR, USA). The samples were incubated for 24 h at 25° C. in an Eppendorf ThermoMixer® C (VWR, USA). Radiochemical purity was determined by analytical reverse phase (radio)HPLC and expressed as a fraction of the purity of the sample prior to incubation. After reformulation, [^64Cu]Cu-RPS-085 was stable at room temperature for more than 24 h.
# Plasma stability = assay type: in vitro ADME, human; details: 37° C.
# Method: The plasma stability of [^67Cu]Cu-RPS-085 was determined according to previously described methods (Alt, et al., Mol Pharmaceutics. 2014; 11: 2855-63). Briefly, frozen human plasma was purchased from Sigma Aldrich (USA), thawed at 37° C., and 200 μL aliquots were transferred to Eppendorf tubes. A 100 μL aliquot of [^67Cu]Cu-RPS-085 in 10% EtOH/saline was added to each tube, and the mixture was shaken at 300 rpm for 24 h at 37° C. on an Eppendorf ThermoMixer® C (VWR, USA). The experiment was performed in triplicate. The proteins were precipitated by addition of 600 μL acetonitrile. The samples were centrifuged at 13500 rpm for 3 min in an Eppendorf 5424-R Centrifuge. The supernatant was analyzed by analytical reverse phase (radio)HPLC as described above. After 24 h incubation in human plasma, [^67Cu]Cu-RPS-085 was 97.4±0.4% intact. The lone radiochemical impurity was an unidentified fragment of the parent compound.
# LNCaP xenografts = assay: Tissue biodistribution in mice bearing LNCaP xenografts; assay type: in vivo, male Balb/C nu/nu mice; details: for activity in kidneys / tumor uptake: i.v., ±SEM
# Method: (§1) All animal studies were approved by the Institutional Animal Care and Use Committee of Weill Cornell Medicine and were undertaken in accordance with the guidelines set forth by the USPHS Policy on Humane Care and Use of Laboratory Animals. The mice were housed under standard conditions in approved facilities with 12 h light/dark cycles. Food and water was provided ad libitum throughout the course of the studies. Male BALB/c athymic nu/nu mice were purchased from the Jackson Laboratory (USA). Prior to inoculation, LNCaP cells were suspended at a density of 4×10^7 cells/mL in a 1:1 mixture of PBS (VWR, USA):Matrigel (BD Biosciences, USA). Each mouse was injected subcutaneously in the left flank with 0.25 mL of the cell suspension. The animals were monitored twice weekly until palpable tumors emerged.
# When tumor size reached approximately 200 mm^3, mice (n=4/time point) were administered 3.8±0.1 MBq [^64Cu]Cu-RPS-085 or 0.8±0.005 MBq [^67Cu]Cu-RPS-085 by intravenous injection. The total mass dose received by each animal was approximately 50 ng (31 pmol) and approximately 28 ng (17 pmol) for the [^64Cu]Cu-RPS-085 and [^67Cu]Cu-RPS-085 studies, respectively. The mice were sacrificed at 4 h, 24 h, or 48 h p.i. ([^64Cu]Cu-RPS-085) or 4 h, 24 h, and 96 h ([^67Cu]Cu-RPS-085). A blood sample was collected, and the following tissues were collected and weighed wet using a digital balance: heart, lungs, liver, stomach, small intestine, large intestine, spleen, pancreas, kidneys, muscle, bone, and tumor. The tissues were counted on a Wizard2 Automatic Gamma Counter (Perkin Elmer, USA) against a 1% injected dose standard. The counts were corrected for decay and for activity injected, and tissue uptake was expressed as percent injected dose per gram (% ID/g). Standard error of the mean (SEM) was calculated for each data point. Statistical analyses were performed using an unpaired t test with GraphPad Prism software. A P value of less than 0.05 was considered significant. The concentration of [67Cu]Cu-RPS-085 found in blood, heart, lungs, liver, small intestine, large intestine, stomach, spleen, pancreas, kidneys, muscle, and bone at 4 h, 24 h, and 96 h, post injection (n=4 per time point) is shown in Table 1 below. Published values for [177Lu]Lu-RPS-063 are shown for comparison; all concentrations are expressed as percent injected dose per organ.
# LNCaP xenograft tumors = assay: microPET/CT imaging in LNCaP xenograft mouse model; assay type: in vivo, male BALB/c athymic nu/nu mice
# Method: as §1
# When tumor size was in the range 200-500 mm^3, mice (n=4) were administered 21.2±0.5 MBq [^64Cu]Cu-RPS-085 by intravenous injection. The total mass dose received by each animal was approximately 300 ng (185 pmol). The mice were imaged under isoflurane anesthesia at 1 h, 3 h, 6 h, 24 h, and 48 h post injection (p.i.) by microPET/CT (Inveon™; Siemens Medical Solutions, USA). Total acquisition time was 30 min. A CT scan was obtained immediately before the PET acquisition for both anatomical co-registration and attenuation correction. Images were reconstructed using the Inveon™ software provided by the vendor.
# T1 sequence (Q04609 whole entry): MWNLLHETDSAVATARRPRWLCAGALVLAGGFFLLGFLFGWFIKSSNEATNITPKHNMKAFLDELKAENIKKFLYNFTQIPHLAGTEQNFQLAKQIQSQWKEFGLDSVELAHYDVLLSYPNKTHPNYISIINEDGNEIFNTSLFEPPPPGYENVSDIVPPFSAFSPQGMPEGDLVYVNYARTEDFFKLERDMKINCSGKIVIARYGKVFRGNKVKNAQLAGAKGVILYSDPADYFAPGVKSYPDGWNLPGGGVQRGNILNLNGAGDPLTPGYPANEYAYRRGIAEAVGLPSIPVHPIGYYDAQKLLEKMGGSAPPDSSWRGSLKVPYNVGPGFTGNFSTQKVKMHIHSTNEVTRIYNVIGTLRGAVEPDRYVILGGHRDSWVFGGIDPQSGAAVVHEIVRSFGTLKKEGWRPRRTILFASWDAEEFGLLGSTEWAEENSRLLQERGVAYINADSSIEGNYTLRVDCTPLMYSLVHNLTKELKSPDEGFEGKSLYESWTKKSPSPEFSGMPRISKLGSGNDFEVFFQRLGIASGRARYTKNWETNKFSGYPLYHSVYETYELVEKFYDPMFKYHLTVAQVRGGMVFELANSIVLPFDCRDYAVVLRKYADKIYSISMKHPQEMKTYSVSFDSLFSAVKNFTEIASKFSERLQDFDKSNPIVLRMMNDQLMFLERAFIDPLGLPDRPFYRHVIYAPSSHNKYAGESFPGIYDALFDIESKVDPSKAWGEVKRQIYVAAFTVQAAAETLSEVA
compound,measurement,setting,value
CC12CNCCNCC(NC(=O)CCCC(=O)NCCCC[C@H](NC(=O)CCOCCOCCOCCn3cc(-c4cccc(NC(=O)NCCCC[C@H](NC(=O)N[C@@H](CCC(=O)O)C(=O)O)C(=O)O)c4)nn3)C(=O)N[C@@H](CCCCNC(=O)Cc3ccc(I)cc3)C(=O)O)(CNCCNC1)CNCCNC2 [RPS-085],IC50,PSMA on LNCaP cells,29.1 ± 2.4 nM
same,affinity for PSMA relative to parent compound RPS-063,PSMA on LNCaP cells,reduced by approximately one order of magnitude
CC12CNCCNCC(NC(=O)CCCC(=O)NCCCC[C@H](NC(=O)CCOCCOCCOCCn3cc(-c4cccc(NC(=O)NCCCC[C@H](NC(=O)N[C@@H](CCC(=O)O)C(=O)O)C(=O)O)c4)nn3)C(=O)N[C@@H](CCCCNC(=O)Cc3ccc(I)cc3)C(=O)O)(CNCCNC1)C[N@]1CC[N@](C2)[Cu]1 [[^64/67Cu]Cu-RPS-085],time stable in solution at room temperature,[1],more than 24 h
same,time stable in human plasma,Plasma stability,more than 24 h
CC12CNCCNCC(NC(=O)CCCC(=O)NCCCC[C@H](NC(=O)CCOCCOCCOCCn3cc(-c4cccc(NC(=O)NCCCC[C@H](NC(=O)N[C@@H](CCC(=O)O)C(=O)O)C(=O)O)c4)nn3)C(=O)N[C@@H](CCCCNC(=O)Cc3ccc(I)cc3)C(=O)O)(CNCCNC1)CNCCNC2.[67Cu+2] [[^67Cu]Cu-RPS-085],fraction intact after incubation in human plasma,Plasma stability; 24 h,97.4±0.4%
same,uncomplexed [67Cu]Cu2+ after incubation in human plasma,Plasma stability; 24 h,No uncomplexed [^67Cu]Cu^2+ was observed
same,activity in kidneys,LNCaP xenografts; 4 h p.i.,19.7±5.0 % ID/g
same,tumor uptake,LNCaP xenografts; 4 h p.i.,12.5±2.7 % ID/g
same,Concentration in Blood,LNCaP xenografts; 4 h post injection,0.02057 percent injected dose per organ
same,Concentration in Bone,LNCaP xenografts; 4 h post injection,0.003853 percent injected dose per organ
same,Concentration in Heart,LNCaP xenografts; 4 h post injection,0.01078 percent injected dose per organ
same,Concentration in Kidneys,LNCaP xenografts; 4 h post injection,11.63 percent injected dose per organ
same,Concentration in Large Intestine,LNCaP xenografts; 4 h post injection,0.29 percent injected dose per organ
same,Concentration in Liver,LNCaP xenografts; 4 h post injection,0.2795 percent injected dose per organ
same,Concentration in Lungs,LNCaP xenografts; 4 h post injection,0.0358 percent injected dose per organ
same,Concentration in Muscle,LNCaP xenografts; 4 h post injection,0.002757 percent injected dose per organ
same,Concentration in Pancreas,LNCaP xenografts; 4 h post injection,0.00535 percent injected dose per organ
same,Concentration in Small Intestine,LNCaP xenografts; 4 h post injection,0.1493 percent injected dose per organ
same,Concentration in Spleen,LNCaP xenografts; 4 h post injection,0.02732 percent injected dose per organ
same,Concentration in Stomach,LNCaP xenografts; 4 h post injection,0.05547 percent injected dose per organ
same,activity in kidneys,LNCaP xenografts; 24 h p.i.,4.5±0.8 % ID/g
same,tumor uptake,LNCaP xenografts; 24 h p.i.,7.9±0.9 % ID/g
same,Concentration in Blood,LNCaP xenografts; 24 h post injection,0.005816 percent injected dose per organ
same,Concentration in Bone,LNCaP xenografts; 24 h post injection,0.001592 percent injected dose per organ
same,Concentration in Heart,LNCaP xenografts; 24 h post injection,0.0068 percent injected dose per organ
same,Concentration in Kidneys,LNCaP xenografts; 24 h post injection,1.857 percent injected dose per organ
same,Concentration in Large Intestine,LNCaP xenografts; 24 h post injection,0.1354 percent injected dose per organ
same,Concentration in Liver,LNCaP xenografts; 24 h post injection,0.1811 percent injected dose per organ
same,Concentration in Lungs,LNCaP xenografts; 24 h post injection,0.01881 percent injected dose per organ
same,Concentration in Muscle,LNCaP xenografts; 24 h post injection,0.001018 percent injected dose per organ
same,Concentration in Pancreas,LNCaP xenografts; 24 h post injection,0.002143 percent injected dose per organ
same,Concentration in Small Intestine,LNCaP xenografts; 24 h post injection,0.08652 percent injected dose per organ
same,Concentration in Spleen,LNCaP xenografts; 24 h post injection,0.008292 percent injected dose per organ
same,Concentration in Stomach,LNCaP xenografts; 24 h post injection,0.04228 percent injected dose per organ
same,tumor-to-kidney ratio,LNCaP xenografts; 96 h p.i.,3.0±0.5
same,activity in kidneys,LNCaP xenografts; 96 h p.i.,1.7±0.3 % ID/g
same,tumor uptake,LNCaP xenografts; 96 h p.i.,5.1±3.3 % ID/g
same,Concentration in Blood,LNCaP xenografts; 96 h post injection,0.003526 percent injected dose per organ
same,Concentration in Bone,LNCaP xenografts; 96 h post injection,0.001075 percent injected dose per organ
same,Concentration in Heart,LNCaP xenografts; 96 h post injection,0.008094 percent injected dose per organ
same,Concentration in Kidneys,LNCaP xenografts; 96 h post injection,0.6854 percent injected dose per organ
same,Concentration in Large Intestine,LNCaP xenografts; 96 h post injection,0.1379 percent injected dose per organ
same,Concentration in Liver,LNCaP xenografts; 96 h post injection,0.1208 percent injected dose per organ
same,Concentration in Lungs,LNCaP xenografts; 96 h post injection,0.01063 percent injected dose per organ
same,Concentration in Muscle,LNCaP xenografts; 96 h post injection,0.000956 percent injected dose per organ
same,Concentration in Pancreas,LNCaP xenografts; 96 h post injection,0.003044 percent injected dose per organ
same,Concentration in Small Intestine,LNCaP xenografts; 96 h post injection,0.06091 percent injected dose per organ
same,Concentration in Spleen,LNCaP xenografts; 96 h post injection,0.005006 percent injected dose per organ
same,Concentration in Stomach,LNCaP xenografts; 96 h post injection,0.04483 percent injected dose per organ
same,accumulated activity (Ã) in kidneys,LNCaP xenografts; over 96 h p.i.,538 (% ID/g)·h
same,accumulated activity (Ã) in tumors,LNCaP xenografts; over 96 h p.i.,699 (% ID/g)·h
same,Ãtumor relative to [177Lu]PSMA-617,LNCaP xenografts; over 96 h p.i.,1.3 times
same,Ãtumor/Ãkidney ratio,LNCaP xenografts; over 96 h p.i.,1.3
CC12CNCCNCC(NC(=O)CCCC(=O)NCCCC[C@H](NC(=O)CCOCCOCCOCCn3cc(-c4cccc(NC(=O)NCCCC[C@H](NC(=O)N[C@@H](CCC(=O)O)C(=O)O)C(=O)O)c4)nn3)C(=O)N[C@@H](CCCCNC(=O)Cc3ccc(I)cc3)C(=O)O)(CNCCNC1)CNCCNC2.[64Cu+2] [[^64Cu]Cu-RPS-085],time stable in solution at room temperature,[1],more than 24 h
same,tumor-to-blood ratio,LNCaP xenografts; 4 h p.i.,230±33
same,tumor-to-kidney ratio,LNCaP xenografts; 4 h p.i.,0.9±0.2
same,activity in kidneys,LNCaP xenografts; 4 h p.i.,13.7±2.3 % ID/g
same,tumor uptake,LNCaP xenografts; 4 h p.i.,12.9±1.4 % ID/g
same,tumor-to-kidney ratio,LNCaP xenografts; 24 h p.i.,3.4±0.7
same,activity in kidneys,LNCaP xenografts; 24 h p.i.,2.4±0.4 % ID/g
same,tumor uptake,LNCaP xenografts; 24 h p.i.,8.3±0.8 % ID/g
same,tumor-to-kidney ratio,LNCaP xenografts; 48 h p.i.,6.1±0.8
same,activity in kidneys,LNCaP xenografts; 48 h p.i.,1.6±0.1 % ID/g
same,tumor uptake,LNCaP xenografts; 48 h p.i.,9.8±1.3 % ID/g
same,tumor-to-muscle ratio,LNCaP xenografts; all observed time points,greater than 500
same,activity in all other tissues including liver,"LNCaP xenografts; all time points (4, 24, 48 h p.i.)",less than 0.5 % ID/g
same,tumor-to-blood ratio,LNCaP xenografts; subsequently (after 4 h p.i.),exceeded 400
same,background tissue activity,LNCaP xenograft tumors; microPET/CT,low
same,primary route of excretion,LNCaP xenograft tumors; microPET/CT,Renal clearance
same,time by which only tumors could be visualized,LNCaP xenograft tumors; microPET/CT,≤ 24 h
same,time by which uptake in tumors exceeded kidneys,"LNCaP xenograft tumors; mouse, in vivo",≤ 6 h p.i.
same,time of greatest activity in the tumor,"LNCaP xenograft tumors; mouse, in vivo",3 h p.i.
same,activity in the tumor over time,"LNCaP xenograft tumors; over the 48 h imaging window, semi-quantitative, ROIs",virtually stable
